≈ marks a conversion by molar mass, not a printed value.

This assay concerns S. aureus. Description: Minimum inhibitory concentrations (MICs) for S. aureus of exemplary compounds (Table 2). It is filed as cell-based. The settings on record: Staphylococcus aureus, minimum inhibitory concentrations for S. aureus; read-out: MICs. In a few lines: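 Growth of S. aureus in media with or without compound, by broth microdilution in microtiter trays following NCCLS M7-A5 guidelines. Values are MICs in μg/mL.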

With `CC(=O)NC[C@H]1CN(c2ccc(-c3ccc(C(=O)NCc4ncsn4)cc3)c(F)c2)C(=O)O1` [Compound 4225, 4′-[5-(S)-(Acetylamino-methyl)-2-oxo-oxazolidin-3-yl]-2′-fluoro-biphenyl-4-carboxylic acid ([1,2,4]thiadiazol-3-ylmethyl)-amide], the MIC worked out at 1 mg/L (≈ 2.13 µM).
Take `CC(=O)NC[C@H]1CN(c2ccc(-c3ccc(CSCC4CO4)cc3)c(F)c2)C(=O)O1` (stereo partly drawn) [Compound 4226, N-[3-(2-Fluoro-4′-oxiranylmethylsulfanylmethyl-biphenyl-4-yl)-2-oxo-oxazolidin-5-(S)-ylmethyl]-acetamide]: the MIC worked out at 1 mg/L (≈ 2.32 µM).
As for `CC(=O)NC[C@H]1CN(c2ccc(-c3ccc(CNCCc4c[nH]cn4)cc3)c(F)c2)C(=O)O1` [Compound 4227, N-[3-(2-Fluoro-4′-{[2-(1H-imidazol-4-yl)-ethylamino]-methyl}-biphenyl-4-yl)-2-oxo-oxazolidin-5-(S)-ylmethyl]-acetamide], the MIC came out at 4 mg/L (≈ 8.86 µM).
Under `CC(=O)NC[C@H]1CN(c2ccc(-c3ccc(CNCCC4C=Nc5ccc(C)cc54)cc3)c(F)c2)C(=O)O1` (stereo partly drawn) [Compound 4228, N-[3-(2-Fluoro-4′-{[2-(5-methyl-3H-indol-3-yl)-ethylamino]-methyl}-biphenyl-4-yl)-2-oxo-oxazolidin-5-(S)-ylmethyl]-acetamide] stands 2 mg/L (≈ 3.89 µM).
For the compound `CC(=O)NC[C@H]1CN(c2ccc(-c3ccc(CNCc4cc(C)on4)cc3)c(F)c2)C(=O)O1` [Compound 4229, N-[3-(2-Fluoro-4′-{[(5-methyl-isoxazol-3-ylmethyl)-amino]-methyl}-biphenyl-4-yl)-2-oxo-oxazolidin-5-(S)-ylmethyl]-acetamide], the MIC turned out to be 0.25 mg/L (≈ 0.553 µM).
For `O=C1O[C@@H](Cn2cncn2)CN1c1ccc(-c2ccc(CNCc3ccncc3)cc2)c(F)c1` [Compound 4230, 3-(2-Fluoro-4′-{[(pyridin-4-ylmethyl)-amino]-methyl}-biphenyl-4-yl)-5-(R)-[1,2,4]triazol-1-ylmethyl-oxazolidin-2-one] the value was 32 mg/L (≈ 69.8 µM).
For `Cn1nnnc1SC[C@H]1CN(c2ccc(-c3ccc(CNCc4ccncc4)cc3)c(F)c2)C(=O)O1` [Compound 4231, 3-(2-Fluoro-4′-{[(pyridin-4-ylmethyl)-amino]-methyl}-biphenyl-4-yl)-5-(R)-(1-methyl-1H-tetrazol-5-ylsulfanylmethyl)-oxazolidin-2-one], the MIC was determined as 32 mg/L (≈ 63.3 µM).
Regarding `CC(=O)NC[C@H]1CN(c2ccc(-c3ccc(CNCc4ncon4)cc3)c(F)c2)C(=O)O1` [Compound 4233, N-[3-(2-Fluoro-4′-{[([1,2,4]oxadiazol-3-ylmethyl)-amino]-methyl}-biphenyl-4-yl)-2-oxo-oxazolidin-5-(S)-ylmethyl]-acetamide], the MIC amounted to 0.5 mg/L (≈ 1.14 µM).
For `CC(=O)NC[C@H]1CN(c2ccc(-c3ccc(CNCc4cocn4)cc3)c(F)c2)C(=O)O1` [Compound 4234, N-[3-(2-Fluoro-4′-{[(oxazol-4-ylmethyl)-amino]-methyl}-biphenyl-4-yl)-2-oxo-oxazolidin-5-(S)-ylmethyl]-acetamide] the value was 2 mg/L (≈ 4.56 µM); for `CC(=O)NC[C@H]1CN(c2ccc(-c3ccc(CNCc4cocn4)nc3)c(F)c2)C(=O)O1` [Compound 4235, N-{3-[3-Fluoro-4-(6-{[(oxazol-4-ylmethyl)-amino]-methyl}-pyridin-3-yl)-phenyl]-2-oxo-oxazolidin-5-(S)-ylmethyl}-acetamide], 2 mg/L (≈ 4.55 µM).
Under `CC(=O)NC[C@H]1CN(c2ccc(-c3ccc(CNNC(=O)c4ccncc4)cc3)c(F)c2)C(=O)O1` [Compound 4236, N-(3-{2-Fluoro-4′-[N′-(pyridine-4-carbonyl)-hydrazinomethyl]-biphenyl-4-yl}-2-oxo-oxazolidin-5-(S)-ylmethyl)-acetamide] stands 0.25 mg/L (≈ 0.524 µM).
In the case of `CC(=O)NC[C@H]1CN(c2ccc(-c3ccc(CNNC(=O)c4cccnc4)cc3)c(F)c2)C(=O)O1` [Compound 4237, N-(3-{2-Fluoro-4′-[N′-(pyridine-3-carbonyl)-hydrazinomethyl]-biphenyl-4-yl}-2-oxo-oxazolidin-5-(S)-ylmethyl)-acetamide], the MIC amounted to 0.25 mg/L (≈ 0.524 µM).
For `CC(=O)NC[C@H]1CN(c2ccc(-c3ccc(CNC(=O)Cn4ccnn4)cc3)c(F)c2)C(=O)O1` [Compound 4239, N-{4′-[5-(S)-(Acetylamino-methyl)-2-oxo-oxazolidin-3-yl]-2′-fluoro-biphenyl-4-ylmethyl}-2-[1,2,3]triazol-1-yl-acetamide] the value was 2 mg/L (≈ 4.29 µM); for `CC(=O)NC[C@H]1CN(c2ccc(-c3ccc(CNC(=O)Cn4cc(CO)nn4)cc3)c(F)c2)C(=O)O1` [Compound 4240, N-{4′-[5-(S)-(Acetylamino-methyl)-2-oxo-oxazolidin-3-yl]-2′-fluoro-biphenyl-4-ylmethyl}-2-(4-hydroxymethyl-[1,2,3]triazol-1-yl)-acetamide], 16 mg/L (≈ 32.2 µM); for `CCC(O)Cc1cn(CC(=O)NCc2ccc(-c3ccc(N4C[C@H](CNC(C)=O)OC4=O)cc3F)cc2)nn1` (stereo partly drawn) [Compound 4241, N-{4′-[5-(S)-(Acetylamino-methyl)-2-oxo-oxazolidin-3-yl]-2′-fluoro-biphenyl-4-ylmethyl}-2-[4-(2-hydroxy-butyl)-[1,2,3]triazol-1-yl]-acetamide], 4 mg/L (≈ 7.43 µM).
For `CC(=O)NC[C@H]1CN(c2ccc(-c3ccc(CNC(=O)c4csc(C)n4)cc3)c(F)c2)C(=O)O1` [Compound 4242, 2-Methyl-thiazole-4-carboxylic acid {4′-[5-(S)-(acetylamino-methyl)-2-oxo-oxazolidin-3-yl]-2′-fluoro-biphenyl-4-ylmethyl}-amide] the value was 2 mg/L (≈ 4.14 µM).
For `CC(=O)NC[C@H]1CN(c2ccc(-c3ccc(CNCc4cc[n+]([O-])cc4)cc3)c(F)c2)C(=O)O1` [Compound 4245, N-[3-(2-Fluoro-4′-{[(1-oxy-pyridin-4-ylmethyl)-amino]-methyl}-biphenyl-4-yl)-2-oxo-oxazolidin-5-(S)-ylmethyl]-acetamide] the value was 2 mg/L (≈ 4.31 µM).
As for `CC(=O)NC[C@H]1CN(c2ccc(-c3ccc([C@H](O)CNCc4ccccc4)cc3)c(F)c2)C(=O)O1` [Compound 4246, N-{3-[4′-(2-Benzylamino-1-(S)-hydroxy-ethyl)-2-fluoro-biphenyl-4-yl]-2-oxo-oxazolidin-5-(S)-ylmethyl}-acetamide], the MIC was 4 mg/L (≈ 8.38 µM).
For `CC(=O)NC[C@H]1CN(c2ccc(-c3ccc([C@H](O)CN(CCCF)Cc4ccccc4)cc3)c(F)c2)C(=O)O1` [Compound 4247, N-[3-(4′-{2-[Benzyl-(3-fluoro-propyl)-amino]-1-(S)-hydroxy-ethyl}-2-fluoro-biphenyl-4-yl)-2-oxo-oxazolidin-5-(S)-ylmethyl]-acetamide] the value was 8 mg/L (≈ 14.9 µM); for `CSCCN(Cc1ccccc1)C[C@@H](O)c1ccc(-c2ccc(N3C[C@H](CNC(C)=O)OC3=O)cc2F)cc1` [Compound 4248, N-[3-(4′-{2-[Benzyl-(2-methylsulfanyl-ethyl)-amino]-1-(S)-hydroxy-ethyl}-2-fluoro-biphenyl-4-yl)-2-oxo-oxazolidin-5-(S)-ylmethyl]-acetamide], 4 mg/L (≈ 7.25 µM); for `CC(=O)NC[C@H]1CN(c2ccc(-c3ccc([C@H](O)CN(CCC(F)(F)Cl)Cc4ccccc4)cc3)c(F)c2)C(=O)O1` [Compound 4249, N-[3-(4′-{2-[Benzyl-(3-chloro-3,3-difluoro-propyl)-amino]-1-(S)-hydroxy-ethyl}-2-fluoro-biphenyl-4-yl)-2-oxo-oxazolidin-5-(S)-ylmethyl]-acetamide], 8 mg/L (≈ 13.6 µM).
For `CC(=O)NC[C@H]1CN(c2ccc(-c3ccc([C@H](O)CN(Cc4ccccc4)C(C)=O)cc3)c(F)c2)C(=O)O1` [Compound 4250, N-(2-{4′-[5-(S)-(Acetylamino-methyl)-2-oxo-oxazolidin-3-yl]-2′-fluoro-biphenyl-4-yl}-2-(S)-hydroxy-ethyl)-N-benzyl-acetamide] the value was 2 mg/L (≈ 3.85 µM).
For `CC(=O)NC[C@H]1CN(c2ccc(-c3ccc([C@H](O)CN(C)Cc4ccccc4)cc3)c(F)c2)C(=O)O1` [Compound 4251, N-(3-{4′-[2-(Benzyl-methyl-amino)-1-(S)-hydroxy-ethyl]-2-fluoro-biphenyl-4-yl}-2-oxo-oxazolidin-5-(S)-ylmethyl)-acetamide] the value was 2 mg/L (≈ 4.07 µM); for `CC(=O)NC[C@H]1CN(c2ccc(-c3ccc(CNCc4cnoc4)nc3)c(F)c2)C(=O)O1` [Compound 4252, N-{3-[3-Fluoro-4-(6-{[(isoxazol-4-ylmethyl)-amino]-methyl}-pyridin-3-yl)-phenyl]-2-oxo-oxazolidin-5-(S)-ylmethyl}-acetamide], 2 mg/L (≈ 4.55 µM); for `CC(=O)NC[C@H]1CN(c2ccc(-c3ccc(CNCc4cc(Br)no4)cc3)c(F)c2)C(=O)O1` [Compound 4253, N-[3-(4′-{[(3-Bromo-isoxazol-5-ylmethyl)-amino]-methyl}-2-fluoro-biphenyl-4-yl)-2-oxo-oxazolidin-5-(S)-ylmethyl]-acetamide], 0.5 mg/L (≈ 0.966 µM).
As for `CO/N=C(\CNCc1cnoc1)c1ccc(-c2ccc(N3C[C@H](CNC(C)=O)OC3=O)cc2F)cc1` [Compound 4254, N-[3-(2-Fluoro-4′-{2-[(isoxazol-4-ylmethyl)-amino]-1-methoxyimino-ethyl}-biphenyl-4-yl)-2-oxo-oxazolidin-5-(S)-ylmethyl]-acetamide], the MIC worked out at 2 mg/L (≈ 4.04 µM).
Turning to `CO/N=C(\CNCc1cocn1)c1ccc(-c2ccc(N3C[C@H](CNC(C)=O)OC3=O)cc2F)cc1` [Compound 4255, N-[3-(2-Fluoro-4′-{1-methoxyimino-2-[(oxazol-4-ylmethyl)-amino]-ethyl}-biphenyl-4-yl)-2-oxo-oxazolidin-5-(S)-ylmethyl]-acetamide], the MIC is 2 mg/L (≈ 4.04 µM).
In the case of `CC(=O)NC[C@H]1CN(c2ccc(-c3ccc(CNCCCc4cn(Cc5ccccc5)nn4)cc3)c(F)c2)C(=O)O1` [Compound 4256, N-[3-(4′-{[3-(1-Benzyl-1H-[1,2,3]triazol-4-yl)-propylamino]-methyl}-2-fluoro-biphenyl-4-yl)-2-oxo-oxazolidin-5-(S)-ylmethyl]-acetamide], the MIC was determined as 4 mg/L (≈ 7.19 µM).
Under `CC(=O)NC[C@H]1CN(c2ccc(-c3ccc(CNCc4cccnc4F)cc3)c(F)c2)C(=O)O1` [Compound 4257, N-[3-(2-Fluoro-4′-{[(2-fluoro-pyridin-3-ylmethyl)-amino]-methyl}-biphenyl-4-yl)-2-oxo-oxazolidin-5-(S)-ylmethyl]-acetamide] stands 0.5 mg/L (≈ 1.07 µM).

For the origin of these results see US10471046B2, “Method for treating, preventing, or reducing the risk of skin infection” (Melinta Subsidiary Corp., priority 2014, dated 2019).
